{"source": "patent US20170283859A1", "about": "“MICROFLUIDIC qRT-PCR ANALYSIS OF SINGLE CELLS” (The Trustees Of Columbia University In the City of New York, priority 2014, published 2017)", "type_in_all_cases": "cell-based", "key": {"[1]": {"tested_on": "CDKN1A transcript levels in single MCF-7 cells", "assay": "Microfluidic array single-cell RT-qPCR, drug induced CDKN1A expression", "method": "During the operation of the array chip, a single analysis unit is selected through the multiplexed valves and then 4x10^6 magnetic beads are introduced (100 nL/s for 20 s) until all analysis units have beads with a syringe pump while an external magnet is held under the chambers. The amount of beads is determined according to the manufacturer's reported bead density and verified by pipetting beads onto a glass slide and counting the total amount of beads with ImageJ software. Next a single analysis unit is reselected with the multiplexed valves and 1.25 μL of cell-containing carrier buffer are introduced (concentration: 10^5 cells/mL, flow rate: 15 nL/s, and infusion time: 83.3 seconds) into the microfluidic device and travel through the cell trap with the first cell to reach the trapping structure becoming trapped. The width of the constriction (5 μm) is smaller than the diameter of the cells (18±2 μm) and therefore the single cell can be immobilized in the trap.\nOnce a single cell becomes immobilized, the back control valve is opened to allow carrier fluid, potentially containing additional cells, to bypass the trapping region and flow directly to the outlet. To further ensure that no cells remain in the outlet well, buffer is injected into the inlet well with a syringe with a 25 gauge stainless steel needle. Lysis buffer is introduced into the cell trap region of each analysis unit at a flow rate of 2 μl/min over a 5-min period to lyse the trapped cell (Sun et al. 2015). After cell lysis the beads were mixed with the cell lysate by manually moving the magnet and captured the mRNA in the cell content, based on complimentary base pairing between the polyA tails of the mRNA and the oligo(dT)25 residues covalently coupled to the bead surfaces. […] The beads were moved into the active chamber and mixed with the sample (mRNA in cell lysate or XenoRNA) by magnet-driven motion. This process is then repeated for the remaining units of the array chip until five of the RT-qPCR chambers each contain beads with bound mRNA. The sixth chamber provides no-template control.\nReverse transcription is performed in all of the six chambers to convert the mRNA into cDNA, using the bead-bound oligo(dT)25 as a primer and with the chamber temperatures controlled simultaneously in closed loop by the integrated heater and temperature sensor (RT: 10 min at 25° C. and 50 min at 42° C.). The resulting cDNA template for PCR is amplified (qPCR: 10 min at 95° C., followed by 40 cycles of 15 s at 95° C. and 1 min at 60° C.) while the accumulation of products is imaged on a fluorescence microscope using a hydrolysis probe/primer set (TaqMan®). The reagent probe/primer consists of a fluorescein amidite (FAM) reporter dye, a minor groove binder and a nonfluorescent quencher (NFQ). Initially, the fluorescence of FAM is suppressed by NFQ. During the PCR annealing process, the probe binds to a complementary region of the target template. Then, during the elongation process that follows, […] from the probe, causing the fluorescent intensity of FAM to increase. To correct for fluorescent fluctuations due to batch-to-batch changes in cavity volume and PCR component concentrations, a passive reference dye (ROX) is employed to normalize the FAM signal during real-time measurements. Fluorescent intensities of ROX and FAM are acquired and measured at the end of each PCR cycle (FIG. 29).\nIn this example, stress induced gene expression in single cells was investigated by treating cells with MMS, an alkylating agent, and then analyzing them by on-chip RT-qPCR. […]\nIn each test, five MMS treated or untreated single cells were isolated and immobilized in five separate analysis units of the array, and the remaining unit was used as a no-template control. Similar to the above mentioned protocol, after cell trapping and lysis, the two-step RT-qPCR was initialized. […]"}, "[2]": {"tested_on": "CDKN1A gene expression in single MCF-7 cells", "assay": "Fully integrated on-chip single-cell RT-qPCR (single analysis unit device), induction of CDKN1A", "method": "In this example, all steps of single-cell RT-qPCR were integrated in the device from Example 1. […] MCF-7 cells were incubated with MEM media supplemented with 10% FBS and […], and were kept at 37° C. in a humidified incubator containing 5% CO2. The Cells used herein, whether treated or not, were from the same generation of MCF-7 cells to eliminate potential generational gene expression differences. The MCF-7 cell suspension was first diluted to 10^5 cells per mL in a microcentrifuge tube, and mixed to homogenize the suspension and break up cell clusters. The homogenized cell suspension was then driven into the device through the cell inlet via a syringe pump while valves were used to manipulate the direction of the flow. The trapping structure was observed under a microscope. As all cells were directed through the cell trapping unit and the width of the channel at the protruding structure (i.e., the portion of the mold that narrows the channel) within the trapping unit (5 μm) is smaller than the average diameter of MCF-7 cells (18±2 μm), a single cell was immobilized in the trap. Once a single cell was trapped, the upstream control valve (FIG. 5) was activated while the cell washing outlet was opened to direct (the potentially cell-containing) carrier fluid away from the cell trap. On average, 1.5 cells were introduced into the device per second. Single cells were consistently trapped in the microchip in 150 seconds or less. A lysis solution (100 mM TrisHCl, pH 7.5, 500 mM LiCl, 10 mM EDTA, 1% LiDS, 5 mM dithiothreitol) was used to chemically lyse the trapped cells. By mixing oligo(dT)25 functionalized beads with the cell lysate, mRNA templates from a single cell were captured and purified on the surface of the beads. The beads were then moved back to the reaction chamber and retained by an external magnet. With the cell trapping and washing outlets closed and the upstream and downstream valves open (FIG. 5), RT reagents were pipetted into the device chamber, followed by the closure of all the inlets and outlets. Then a pulsed temperature RT protocol was carried out (10 min at 25° C. and 50 min at 42° C.). Similarly, after RT, PCR reagents were introduced into the device which simultaneously flushed away the RT reagent, while the chip was situated on a magnet to immobilize the beads. Once the PCR reagents completely filled the reaction chamber, all the outlets were sealed with plugs. Then the platform was placed on the stage of a fluorescent microscope. Each PCR process was initialized and thermocycled with the following protocols: 10 min at 95° C., followed by 35 cycles of 15 s at 95° C. and 1 min at 60° C. The gene expressions of single cells were assayed for the induction of CDKN1A using a hydrolysis probe/primer. […] The threshold was calculated to be 0.07. […]"}, "[3]": {"tested_on": "GAPDH transcript level in single MCF-7 cells", "assay": "Microfluidic array single-cell RT-qPCR, housekeeping gene GAPDH", "conditions": "120 μg/mL MMS for 2.5 h", "method": "During the operation of the array chip, a single analysis unit is selected through the multiplexed valves and then 4x10^6 magnetic beads are introduced (100 nL/s for 20 s) until all analysis units have beads with a syringe pump while an external magnet is held under the chambers. The amount of beads is determined according to the manufacturer's reported bead density and verified by pipetting beads onto a glass slide and counting the total amount of beads with ImageJ software. […] The resulting cDNA template for PCR is amplified (qPCR: 10 min at 95° C., followed by 40 cycles of 15 s at 95° C. and 1 min at 60° C.) while the accumulation of products is imaged on a fluorescence microscope using a hydrolysis probe/primer set (TaqMan®). […] Initially, the fluorescence of FAM is suppressed by NFQ. […] Fluorescent intensities of ROX and FAM are acquired and measured at the end of each PCR cycle (FIG. 29). […] The transcript levels of CDKN1 A and the housekeeping gene GAPDH was measured in MMS treated (120 μg/mL for 2.5 h) and untreated single MCF-7 cells using the microfluidic array. […]"}}}
{"smiles": "COS(C)(=O)=O", "note": "[MMS, methyl methanesulfonate]", "values": [{"measurement": "ΔCq (difference between Cq of treated and untreated cells), CDKN1A", "setting": "[1]; 120 μg/mL MMS for 2.5 h", "result": 3.0}, {"measurement": "mean Cq value of CDKN1A", "setting": "[1]; 120 μg/mL MMS for 2.5 h, untreated 33.5", "result": 30.5}, {"measurement": "transcript levels of CDKN1A on treating single cells with MMS", "setting": "[1]; 120 μg/mL for 2.5 h", "result": "upregulated significantly"}, {"measurement": "upregulation of CDKN1A expression vs MMS dosage", "setting": "[1]; 30 to 150 μg/mL, 2.5 h", "result": "positively correlated with MMS dosage"}, {"measurement": "mean Cq value of CDKN1A", "setting": "[1]; dosage 30 μg/ml, 2.5 h", "result": 33.5}, {"measurement": "mean Cq value of CDKN1A", "setting": "[1]; dosage 150 μg/ml, 2.5 h", "result": 29.3}, {"measurement": "mean Cq value of CDKN1A", "setting": "[1]; exposure time 0.5 h", "result": 32.9}, {"measurement": "mean Cq value of CDKN1A", "setting": "[1]; exposure time 4.5 h", "result": 28.1}, {"measurement": "inter-unit Cq difference for CDKN1A", "setting": "[1]; first dose step (doses from 30 to 150 μg/ml, 2.5 h)", "result": 0.4}, {"measurement": "inter-unit Cq difference for CDKN1A", "setting": "[1]; fourth dose step (doses from 30 to 150 μg/ml, 2.5 h)", "result": 0.7}, {"measurement": "upregulation of CDKN1A expression vs treating time duration", "setting": "[1]; range of 0.5 to 4.5 h", "result": "positively correlated with treating time duration"}, {"measurement": "inter-unit Cq difference for CDKN1A", "setting": "[1]; second dose step (doses from 30 to 150 μg/ml, 2.5 h)", "result": 0.7}, {"measurement": "inter-unit Cq difference for CDKN1A", "setting": "[1]; third dose step, 90 to 120 μg/ml, 2.5 h", "result": 1.3}, {"measurement": "amount of starting templates higher than in untreated single cells", "setting": "[2]; 2.5 h MMS treated MCF-7 cells", "result": "about 45 folds"}, {"measurement": "Cq value of CDKN1A RT-qPCR", "setting": "[2]; MMS treated single MCF-7 cells, 2.5 h, mean of five repeated tests, untreated 32.3", "result": 26.8}, {"measurement": "mean Cq value lower than untreated single cells", "setting": "[2]; MMS treated vs untreated single MCF-7 cells", "result": 5.48, "unit": "cycles"}, {"measurement": "transcript levels of the CDKN1A gene after MMS treatment", "setting": "[2]; single MCF-7 cells", "result": "upregulated significantly"}, {"measurement": "ΔCq (difference between Cq of treated and untreated cells), GAPDH", "setting": "[3]", "result": "approximately 0.5"}]}
